Patent publication US20120148586A1, “GLUCAGON-LIKE PROTEIN-1 RECEPTOR (GLP-1R) AGONISTS FOR TREATING AUTOIMMUNE DISORDERS” (priority 2009, published 2012)

What was measured:
thymocytes = assay: CD4, CD8 double positive thymocytes in naïve and EAE animals (Table 5); type: in vivo, mice; conditions: exendin-4 1 mg/kg or dexamethasone 4 mg/kg, day 6
Description: EAE was induced in 8 week old C57B1/6 mice by subcutaneous injections of MOG/CFA followed by i.p. injection of pertussis toxin. […] Dexamethasone is known to cause T cell death. On day 6 after immunization, thymi were harvested. Thymocytes were isolated, stained with anti-CD4 and anti-CD8 antibodies and analyzed by flow cytometry.

[1] = test system: lymphocytes, monocytes, CD4+, CD8+, CD19+ and Ter119+ cells; assay: immune cell populations in EAE animals by FACS; type: in vivo, mice; conditions: spleen, day 5; exendin-4 1 mg/kg or dexamethasone 4 mg/kg daily
[2] = test system: IL-17+ and IFN-γ+ cells (Th17 and Th1); assay: IL-17+ and IFN-γ+ CD4 cells in inguinal lymph nodes by FACS; type: in vivo, mice; conditions: inguinal lymph node; exendin-4 1 mg/kg or dexamethasone 4 mg/kg daily; day 5 or 7
glucose and GLP-1 levels = assay: oral glucose tolerance test; type: in vivo, mice; conditions: vs methylcellulose
Description: GLP-1 is degraded in vivo by dipeptidyl peptidase-4 (DPP-4). DPP-4 inhibitors include, for example without limitation, sitagliptin, vildagliptin, saxagliptin, linagliptin, dutogliptin, gemigliptin, alogliptin and berberine. To test whether the DPP-4 inhibitor sitagliptin can prevent glucose level increases and elevated GLP-1 levels, four groups of 12 month old male C57BI/6 mice (n=4-5) were fasted overnight and subjected to an oral glucose tolerance test the following morning. One hour prior to oral glucose challenge, test animals were orally dosed with either 1 mg/kg or 10 mg/kg sitagliptin. […] After oral glucose challenge, glucose levels were test at 20, 40, 60 and 120 minutes. Blood samples were also taken at 20 minutes after glucose challenge to check glucose and GLP-1 levels.

[3] = test system: EAE in MOG (35-55) immunized C57BL/6 mice; assay: EAE clinical score (morbidity) after MOG (35-55) immunization; type: in vivo
Experimental: EAE was induced in female C57BL/6 mice by s.c. injection of 200 μg of the encephalitogenic peptide MOG (35-55) emulsified in CFA (Difco) and supplemented with 4 mg/ml of M. tuberculosis (Difco) on experiment day 0, followed immediately and again after 48 hours by 400 ng of pertussis toxin injected i.v.
(§1) Animals were scored for morbidity as follows: 0=normal; 1=limp tail; 2=moderate hind limb weakness; 3=moderately severe hind limb weakness (animal can still walk with difficulty); 4=severe hind limb weakness (animal can move its hind limbs but cannot walk); 5=complete hind limb paralysis; and 6=death.
Another group of mice were treated on a weekly basis with 1mg/kg GAC-1 (n=10). The mice were assessed daily for clinical signs of EAE according to the following scale: 0=normal; 1=limp tail; 2=moderate hind-limb weakness; 3=moderately severe hind-limb weakness (animal can still walk); 4=severe hind-limb weakness (animal can move their hind-limbs but cannot walk); 5=complete hind limb paralysis; 6=death.
In a separate experiment, EAE was induced as described above. […] A second group of animals were treated with 3 mg/kg GAC-1 on day 0 after MOG immunization, followed by weekly treatments of 1 mg/kg GAC-1 starting on day 7 after immunization. A third group of animals were treated daily with PBS (control, n=10). Clinical scores were monitored daily following criteria described above.
as §1, with “At day 5 after immunization, blood samples were taken for measurement of GLP1 levels. […] To monitor disease progression, animals” for “Animals”, “scored daily” for “scored”

GLP-1 levels = assay: blood GLP1 levels in EAE mice at day 5 after immunization; type: in vivo; conditions: 10 mg/kg once daily, vs methylcellulose
Description: as §1, with “At day 5 after immunization, blood samples were taken for measurement of GLP1 levels. […] To monitor disease progression, animals” for “Animals”, “scored daily” for “scored”

| Compound | % CD4, CD8 double positive cells (thymocytes; EAE mice) [%] | % CD4, CD8 double positive cells (thymocytes; Naïve mice) [%] | reduction of Ter119+ cells in EAE animals [1] | reduction of IL-17+ cells in EAE animals [2] [%] | glucose levels after oral glucose challenge (glucose and GLP-1 levels; 1 mg/kg or 10 mg/kg oral, not statistically significant by two-way ANOVA) | blood GLP-1 levels 20 minutes after oral glucose challenge (glucose and GLP-1 levels; either dose (1 mg/kg or 10 mg/kg oral)) | disease score from day 18 to day 20 ([3]; 10 mg/kg once daily, vs methylcellulose) | morbidity (EAE clinical score) ([3]; once daily day 0 to day 28, exendin-4 1 mg/kg, sitagliptin 1 or 10 mg/kg, vs methylcellulose, FIG. 18) | EAE progression / disease symptoms ([3]; once daily day 0 to day 28, exendin-4 1 mg/kg, sitagliptin either 1 mg/kg or 10 mg/kg, FIG. 18) | GLP-1 levels at day 5 after immunization (GLP-1 levels) |
| --- | --- | --- | --- | --- | --- | --- | --- | --- | --- | --- |
| C[C@@H]1C[C@H]2[C@@H]3CCC4=CC(=O)C=C[C@]4(C)[C@@]3(F)[C@@H](O)C[C@]2(C)[C@@]1(O)C(=O)CO [dexamethasone] | 1.5±0.5 | 12.4±3.3 | 20-25% | 50 |  |  |  |  |  |  |
| N[C@@H](CC(=O)N1CCn2c(nnc2C(F)(F)F)C1)Cc1cc(F)c(F)cc1F [sitagliptin] |  |  |  |  | trend toward lower glucose levels | significantly increased blood GLP-1 levels | significantly lower | significantly reduced morbidity | trend towards attenuating disease symptoms | significantly higher GLP-1 levels |
